Data published in ChEMBL document CHEMBL1629609, “Phenotypic and enzymatic comparative analysis of the novel KPC variant KPC-5 and its evolutionary variants, KPC-2 and KPC-4” (Antimicrob Agents Chemother, 2009).
Values after ≈ are worked out from the molar mass of the structure shown.

Columns and labels:
[1] = tested on: Enterobacter cancerogenus; test: Antibacterial activity against Enterobacter cancerogenus E624 harboring beta-lactamase KPC-4 by agar dilution method; format: functional
Escherichia coli [2] = test: Antibacterial activity against Escherichia coli TOP10 by agar dilution method; format: functional
Escherichia coli [3] = test: Antibacterial activity against Escherichia coli TOP10 harboring beta-lactamase KPC-2 by agar dilution method; format: functional
Escherichia coli [4] = test: Antibacterial activity against Escherichia coli TOP10 harboring beta-lactamase KPC-4 by agar dilution method; format: functional
Escherichia coli [5] = test: Metabolic stability in Escherichia coli TOP10 harboring beta-lactamase KPC-2 assessed as hydrolysis rate per mg of extracts at 100 uM after 5 mins by spectrophotometric analysis in presence of clavulanic acid; format: ADME, organism-based; details: in vivo
Escherichia coli [6] = test: Metabolic stability in Escherichia coli TOP10 harboring beta-lactamase KPC-2 assessed as hydrolysis rate per mg of extracts at 100 uM after 5 mins by spectrophotometric analysis; format: ADME, organism-based; details: in vivo
Escherichia coli [7] = test: Metabolic stability in Escherichia coli TOP10 harboring beta-lactamase KPC-4 assessed as hydrolysis rate per mg of extracts at 100 uM after 5 mins by spectrophotometric analysis; format: ADME, organism-based; details: in vivo
Escherichia coli [8] = test: Metabolic stability in Escherichia coli TOP10 harboring beta-lactamase KPC-4 assessed as hydrolysis rate per mg of extracts at 100 uM after 5 mins by spectrophotometric analysis in presence of clavulanic acid; format: ADME, organism-based; details: in vivo
Escherichia coli [9] = test: Metabolic stability in Escherichia coli TOP10 harboring beta-lactamase KPC-5 assessed as hydrolysis rate per mg of extracts at 100 uM after 5 mins by spectrophotometric analysis; format: ADME, organism-based; details: in vivo
Escherichia coli [10] = test: Metabolic stability in Escherichia coli TOP10 harboring beta-lactamase KPC-5 assessed as hydrolysis rate per mg of extracts at 100 uM after 5 mins by spectrophotometric analysis in presence of clavulanic acid; format: ADME, organism-based; details: in vivo
Pseudomonas aeruginosa [11] = test: Antibacterial activity against Pseudomonas aeruginosa PR100 harboring beta-lactamase KPC-2 by agar dilution method; format: functional
Pseudomonas aeruginosa [12] = test: Antibacterial activity against Pseudomonas aeruginosa PR280 harboring beta-lactamase KPC-5 by agar dilution method; format: functional
Escherichia coli [13] = test: Antibacterial activity against Escherichia coli TOP10 harboring beta-lactamase KPC-5 by agar dilution method; format: functional
Escherichia coli [14] = test: Ratio of MIC for Escherichia coli TOP10 harboring beta-lactamase KPC-2 to MIC for Escherichia coli TOP10 harboring beta-lactamase KPC-4; format: functional
Escherichia coli [15] = test: Metabolic stability in Escherichia coli TOP10 harboring beta-lactamase KPC-2 assessed as hydrolysis rate per mg of extracts at 50 uM after 5 mins by spectrophotometric analysis; format: ADME, organism-based; details: in vivo
Escherichia coli [16] = test: Metabolic stability in Escherichia coli TOP10 harboring beta-lactamase KPC-4 assessed as hydrolysis rate per mg of extracts at 50 uM after 5 mins by spectrophotometric analysis; format: ADME, organism-based; details: in vivo
Escherichia coli [17] = test: Metabolic stability in Escherichia coli TOP10 harboring beta-lactamase KPC-5 assessed as hydrolysis rate per mg of extracts at 50 uM after 5 mins by spectrophotometric analysis; format: ADME, organism-based; details: in vivo
Pseudomonas aeruginosa [18] = test: Antibacterial activity against Pseudomonas aeruginosa PR100 harboring beta-lactamase KPC-2 by agar dilution method in presence of Tazobactam; format: functional
[19] = tested on: Enterobacter cancerogenus; test: Antibacterial activity against Enterobacter cancerogenus E624 harboring beta-lactamase KPC-4 by agar dilution method in presence of Tazobactam; format: functional
Pseudomonas aeruginosa [20] = test: Antibacterial activity against Pseudomonas aeruginosa PR280 harboring beta-lactamase KPC-5 by agar dilution method in presence of Tazobactam; format: functional
Escherichia coli [21] = test: Antibacterial activity against Escherichia coli TOP10 by agar dilution method in presence of Tazobactam; format: functional
Escherichia coli [22] = test: Antibacterial activity against Escherichia coli TOP10 harboring beta-lactamase KPC-2 by agar dilution method in presence of Tazobactam; format: functional
Escherichia coli [23] = test: Antibacterial activity against Escherichia coli TOP10 harboring beta-lactamase KPC-4 by agar dilution method in presence of Tazobactam; format: functional
Escherichia coli [24] = test: Antibacterial activity against Escherichia coli TOP10 harboring beta-lactamase KPC-5 by agar dilution method in presence of Tazobactam; format: functional
Escherichia coli [25] = test: Ratio of MIC for Escherichia coli TOP10 harboring beta-lactamase KPC-2 to MIC for Escherichia coli TOP10 harboring beta-lactamase KPC-5; format: functional
Escherichia coli [26] = test: Antibacterial activity against Escherichia coli TOP10 by agar dilution method in presence of clavulanic acid
Escherichia coli [27] = test: Antibacterial activity against Escherichia coli TOP10 harboring beta-lactamase KPC-2 by agar dilution method in presence of clavulanic acid; format: functional
Escherichia coli [28] = test: Antibacterial activity against Escherichia coli TOP10 harboring beta-lactamase KPC-4 by agar dilution method in presence of clavulanic acid; format: functional
Escherichia coli [29] = test: Antibacterial activity against Escherichia coli TOP10 harboring beta-lactamase KPC-5 by agar dilution method in presence of clavulanic acid

SMILES	MIC [1]	MIC (Escherichia coli [2])	MIC (Escherichia coli [3])	MIC (Escherichia coli [4])	Stability (Escherichia coli [6])	Stability (Escherichia coli [7])	Stability (Escherichia coli [9])	MIC (Escherichia coli [13])	other results
C[C@@H](O)[C@H]1C(=O)N2C(C(=O)O)=C(S[C@@H]3CN[C@H](C(=O)N(C)C)C3)[C@H](C)[C@H]12 [MEROPENEM]	> 32 µg/mL	< 0.06 µg/mL	8 µg/mL (≈ 20.9 µM)	1 µg/mL (≈ 2.61 µM)	–	–	–	–	–
CC(=O)OCC1=C(C(=O)O)N2C(=O)[C@@H](NC(=O)Cc3cccs3)[C@H]2SC1 [CEPHALOTHIN]	–	–	–	–	65 nmol/min	53 nmol/min	50 nmol/min	–	Stability (Escherichia coli [5]): 25 nmol/min; Stability (Escherichia coli [8]): 6 nmol/min; Stability (Escherichia coli [10]): 7 nmol/min
CC(C)(O/N=C(\C(=O)N[C@@H]1C(=O)N2C(C(=O)[O-])=C(C[n+]3ccccc3)CS[C@H]12)c1csc(N)n1)C(=O)O [CEFTAZIDIME]	> 64 µg/mL	0.12 µg/mL (≈ 0.22 µM)	32 µg/mL (≈ 58.5 µM)	> 128 µg/mL	–	–	–	128 µg/mL (≈ 234 µM)	MIC (Pseudomonas aeruginosa [11]): 64 µg/mL (≈ 117 µM); MIC (Pseudomonas aeruginosa [12]): 128 µg/mL (≈ 234 µM); Ratio (Escherichia coli [14]): 8; Stability (Escherichia coli [15]): 3 nmol/min; Stability (Escherichia coli [16]): 7 nmol/min; Stability (Escherichia coli [17]): 6 nmol/min
C[C@H]1[C@H](NC(=O)/C(=N\OC(C)(C)C(=O)O)c2csc(N)n2)C(=O)N1S(=O)(=O)O [AZTREONAM]	> 64 µg/mL	< 0.12 µg/mL	> 128 µg/mL	> 128 µg/mL	–	–	–	> 128 µg/mL	–
CCN1CCN(C(=O)N[C@@H](C(=O)N[C@@H]2C(=O)N3[C@@H]2SC(C)(C)[C@@H]3C(=O)O)c2ccccc2)C(=O)C1=O [PIPERACILLIN]	–	–	–	–	–	–	–	–	MIC (Pseudomonas aeruginosa [18]): > 256 µg/mL; MIC [19]: > 64 µg/mL; MIC (Pseudomonas aeruginosa [20]): 128 µg/mL; MIC (Escherichia coli [21]): 1 µg/mL; MIC (Escherichia coli [22]): > 256 µg/mL; MIC (Escherichia coli [23]): 128 µg/mL; MIC (Escherichia coli [24]): > 256 µg/mL
CO[C@@]1(NC(=O)Cc2cccs2)C(=O)N2C(C(=O)O)=C(COC(N)=O)CS[C@@H]21 [CEFOXITIN]	> 64 µg/mL	4 µg/mL (≈ 9.36 µM)	32 µg/mL (≈ 74.9 µM)	8 µg/mL (≈ 18.7 µM)	–	–	–	16 µg/mL (≈ 37.4 µM)	Ratio (Escherichia coli [14]): 4; Ratio (Escherichia coli [25]): 2
C[C@@H](O)[C@H]1C(=O)N2C(C(=O)O)=C(S[C@@H]3CN[C@H](C(=O)Nc4cccc(C(=O)O)c4)C3)[C@H](C)[C@H]12	> 16 µg/mL	< 0.06 µg/mL	16 µg/mL (≈ 33.6 µM)	2 µg/mL (≈ 4.21 µM)	–	–	–	8 µg/mL (≈ 16.8 µM)	–
CO/N=C(\C(=O)N[C@@H]1C(=O)N2C(C(=O)[O-])=C(C[N+]3(C)CCCC3)CS[C@H]12)c1csc(N)n1	64 µg/mL (≈ 133 µM)	< 0.06 µg/mL	16 µg/mL (≈ 33.3 µM)	8 µg/mL (≈ 16.6 µM)	–	–	–	–	–
CO/N=C(\C(=O)N[C@@H]1C(=O)N2C(C(=O)O)=C(COC(C)=O)CS[C@H]12)c1csc(N)n1 [CEFOTAXIME]	> 64 µg/mL	< 0.06 µg/mL	64 µg/mL (≈ 141 µM)	64 µg/mL (≈ 141 µM)	1310 nmol/min	172 nmol/min	368 nmol/min	64 µg/mL (≈ 141 µM)	Stability (Escherichia coli [5]): 487 nmol/min; Stability (Escherichia coli [8]): 20 nmol/min; Stability (Escherichia coli [10]): 48 nmol/min
C[C@@H](O)[C@H]1C(=O)N2C(C(=O)O)=C(SCCN=CN)C[C@H]12 [IMIPENEM ANHYDROUS]	> 32 µg/mL	0.12 µg/mL (≈ 0.401 µM)	16 µg/mL (≈ 53.4 µM)	2 µg/mL (≈ 6.68 µM)	412 nmol/min	69 nmol/min	116 nmol/min	4 µg/mL (≈ 13.4 µM)	MIC (Pseudomonas aeruginosa [11]): > 64 µg/mL; MIC (Pseudomonas aeruginosa [12]): > 64 µg/mL; MIC (Escherichia coli [26]): 0.12 µg/mL; MIC (Escherichia coli [27]): 4 µg/mL; MIC (Escherichia coli [28]): < 0.06 µg/mL; MIC (Escherichia coli [29]): 0.12 µg/mL
